Toxic doses and inconclusive results are not listed. Cut-off read from the data, not from the text of the source: active = T/C of 150% or more; inactive = T/C below 125%.
Tested on: L1210 leukemia ip in BDF1 mice, survival T/C
Experiment: NCI In Vivo Anticancer Drug Screen. Data for tumor model L1210 Leukemia (intraperitoneal) in B6D2F1 (BDF1) mice
Settings: higher = longer survival
How it was run: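 Survival endpoint. Drug-treated group vs vehicle group, expressed as T divided by C. Tumor passaged by transplantation.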

[1] = endpoint: mean survival time, dose: 50.0 mg/kg/injection, schedule: Q01DX009 (ip), vehicle: Klucel (hydroxypropylcellulose) (HPC)
[2] = endpoint: mean survival time, dose: 100.0 mg/kg/injection, schedule: Q01DX009 (ip), vehicle: Klucel (hydroxypropylcellulose) (HPC)
[3] = endpoint: mean survival time, dose: 100.0 mg/kg/injection, schedule: Q04DX003 (ip), vehicle: Klucel (hydroxypropylcellulose) (HPC)
[4] = endpoint: mean survival time, dose: 200.0 mg/kg/injection, schedule: Q01DX009 (ip), vehicle: Klucel (hydroxypropylcellulose) (HPC)
[5] = endpoint: mean survival time, dose: 200.0 mg/kg/injection, schedule: Q04DX003 (ip), vehicle: Klucel (hydroxypropylcellulose) (HPC)
[6] = endpoint: mean survival time, dose: 400.0 mg/kg/injection, schedule: Q01DX009 (ip), vehicle: Klucel (hydroxypropylcellulose) (HPC)
[7] = endpoint: mean survival time, dose: 400.0 mg/kg/injection, schedule: Q04DX003 (ip), vehicle: Klucel (hydroxypropylcellulose) (HPC)
[8] = endpoint: mean survival time, dose: 100.0 mg/kg/injection, schedule: Q01DX001 (ip), vehicle: carboxymethylcellulose (CMC)
[9] = endpoint: mean survival time, dose: 200.0 mg/kg/injection, schedule: Q01DX001 (ip), vehicle: carboxymethylcellulose (CMC)
[10] = endpoint: mean survival time, dose: 400.0 mg/kg/injection, schedule: Q01DX001 (ip), vehicle: carboxymethylcellulose (CMC)
[11] = endpoint: mean survival time, dose: 50.0 mg/kg/injection, schedule: Q01DX001 (ip), vehicle: carboxymethylcellulose (CMC)
[12] = endpoint: mean survival time, dose: 100.0 mg/kg/injection, schedule: Q04DX002 (ip), vehicle: saline with Tween-80
[13] = endpoint: mean survival time, dose: 400.0 mg/kg/injection, schedule: Q04DX002 (ip), vehicle: saline with Tween-80
[14] = endpoint: mean survival time, dose: 100.0 mg/kg/injection, schedule: Q01DX009 (ip), vehicle: saline with Tween-80
[15] = endpoint: mean survival time, dose: 100.0 mg/kg/injection, schedule: Q04DX003 (ip), vehicle: saline with Tween-80
[16] = endpoint: mean survival time, dose: 200.0 mg/kg/injection, schedule: Q01DX009 (ip), vehicle: saline with Tween-80
[17] = endpoint: mean survival time, dose: 200.0 mg/kg/injection, schedule: Q04DX003 (ip), vehicle: saline with Tween-80
[18] = endpoint: mean survival time, dose: 400.0 mg/kg/injection, schedule: Q01DX009 (ip), vehicle: saline with Tween-80
[19] = endpoint: mean survival time, dose: 400.0 mg/kg/injection, schedule: Q04DX003 (ip), vehicle: saline with Tween-80

Measured: T/C

Cc1ccc(S(=O)(=O)OCC(F)(F)C(F)(F)C(F)(F)COS(=O)(=O)c2ccc(C)cc2)cc1
inactive: endpoint: mean survival time, dose: 75.0 mg/kg/injection, schedule: Q04DX002 (ip), vehicle: saline with Tween-80 88 % of control | endpoint: mean survival time, dose: 150.0 mg/kg/injection, schedule: Q04DX002 (ip), vehicle: saline with Tween-80 91 % of control | endpoint: mean survival time, dose: 300.0 mg/kg/injection, schedule: Q04DX002 (ip), vehicle: saline with Tween-80 95 % of control

Brc1cc(Br)c(-c2c(Br)cc(Br)cc2Br)c(Br)c1
inactive: [1] 111 % of control | [2] 93 % of control | [3] 108 % of control | [4] 101 % of control | [5] 105 % of control | [6] 98 % of control | [7] 95 % of control

Cc1ccc(C)c([N+](=O)[O-])c1C(=O)O
inactive: [8] 104 % of control | [9] 96 % of control | [10] 109 % of control

C=C(C1CC1)C1(CC)C(=O)NC(=S)NC1=O
inactive: endpoint: mean survival time, dose: 75.0 mg/kg/injection, schedule: Q01DX001 (ip), vehicle: other 102 % of control | endpoint: mean survival time, dose: 150.0 mg/kg/injection, schedule: Q01DX001 (ip), vehicle: other 113 % of control | endpoint: mean survival time, dose: 300.0 mg/kg/injection, schedule: Q01DX001 (ip), vehicle: other 94 % of control

Cc1cc(NCCCCCCCNc2cc(C)nc3cc(N)ccc23)c2ccc(N)cc2n1
inactive: endpoint: median survival time, dose: 1.56 mg/kg/injection, schedule: Q01DX009 (ip), vehicle: water 123 % of control | endpoint: median survival time, dose: 25.0 mg/kg/injection, schedule: Q01DX009 (ip), vehicle: water 116 % of control
active: endpoint: median survival time, dose: 6.25 mg/kg/injection, schedule: Q01DX009 (ip), vehicle: water 154 % of control | endpoint: median survival time, dose: 12.5 mg/kg/injection, schedule: Q01DX009 (ip), vehicle: water 194 % of control

Cc1cccc(C)c1/[N+]([O-])=C/c1ccc(Cl)cc1
inactive: endpoint: mean survival time, dose: 100.0 mg/kg/injection, schedule: Q01DX001 (ip), vehicle: Klucel (hydroxypropylcellulose) (HPC) 101 % of control | endpoint: mean survival time, dose: 200.0 mg/kg/injection, schedule: Q01DX001 (ip), vehicle: Klucel (hydroxypropylcellulose) (HPC) 98 % of control | endpoint: mean survival time, dose: 400.0 mg/kg/injection, schedule: Q01DX001 (ip), vehicle: Klucel (hydroxypropylcellulose) (HPC) 108 % of control

CN(C)Cc1c(C(O)(c2ccccc2)c2ccccc2)ccc2ccccc12
inactive: [11] 90 % of control | [8] 100 % of control | [9] 96 % of control | [10] 90 % of control

CC(C)C(NC(=O)C(F)(F)F)C(=O)O (stereo unspecified)
inactive: endpoint: mean survival time, dose: 87.5 mg/kg/injection, schedule: Q04DX003 (ip), vehicle: saline 90 % of control | endpoint: mean survival time, dose: 175.0 mg/kg/injection, schedule: Q04DX003 (ip), vehicle: saline 89 % of control

O=C(Nc1ccc2ccccc2c1)c1ccccc1Cl
inactive: [2] 93 % of control | [4] 101 % of control | [6] 101 % of control

Cc1ccc(NC(=O)N(Cc2ccccc2)Cc2ccccc2)c([N+](=O)[O-])c1
inactive: [1] 87 % of control | [2] 123 % of control | [3] 95 % of control | [4] 90 % of control | [5] 101 % of control | [7] 99 % of control

c1cc2c(cc1-c1nnc(-c3ccc4c(c3)OCO4)nn1)OCO2
inactive: endpoint: mean survival time, dose: 400.0 mg/kg/injection, schedule: Q01DX001 (ip), vehicle: saline with Tween-80 86 % of control

CCCCCC/S(C)=N\S(=O)(=O)c1ccc(Br)cc1 (stereo unspecified)
inactive: [11] 100 % of control | [8] 103 % of control | [9] 97 % of control | [10] 114 % of control

CCC/C=N/NC(=O)CCCCCCCCCCCCCCCCC
inactive: [2] 86 % of control | [4] 88 % of control | [6] 88 % of control

CCCCCCCC/C=C\CCCCCCCCNP(=O)(OCCCCCCCCCCCC)OCCCCCCCCCCCC
inactive: [12] 101 % of control | [13] 86 % of control

O=[N+]([O-])c1cc(Cl)ccc1S(=O)(=O)c1ccccc1
inactive: [1] 99 % of control | [2] 99 % of control | [4] 108 % of control

C1C2C3OC3C1C1C2C2C3CC(C4OC34)C12 (stereo unspecified)
inactive: [14] 94 % of control | [15] 100 % of control | [16] 94 % of control | [17] 101 % of control | [18] 94 % of control | [19] 97 % of control

COc1cc([N+](=O)[O-])ccc1-c1c(C(=O)O)cccc1[N+](=O)[O-]
inactive: [3] 101 % of control | [5] 95 % of control | [7] 90 % of control

CC(C)CC(NC(=O)CNC(=O)OCc1ccccc1)C(=O)O (stereo unspecified)
inactive: [15] 101 % of control | [17] 97 % of control | [19] 91 % of control

O=C(COc1ccc(Cl)cc1)Nc1ccc[n+](Cc2ccc(S(=O)(=O)F)cc2)c1
inactive: [2] 105 % of control | [4] 101 % of control

CC(C)=CCC(=O)NCC(CCN1CCCCC1)(c1cccc2ccccc12)C(C)C (stereo unspecified)
inactive: endpoint: mean survival time, dose: 12.5 mg/kg/injection, schedule: Q04DX003 (ip), vehicle: saline with Tween-80 96 % of control | endpoint: mean survival time, dose: 25.0 mg/kg/injection, schedule: Q04DX003 (ip), vehicle: saline with Tween-80 88 % of control | endpoint: mean survival time, dose: 50.0 mg/kg/injection, schedule: Q01DX003 (ip), vehicle: saline with Tween-80 88 % of control | endpoint: mean survival time, dose: 50.0 mg/kg/injection, schedule: Q04DX003 (ip), vehicle: saline with Tween-80 92 % of control | [2] 90 % of control | [4] 90 % of control

CC(=O)CC(C)=NCCN=C(C)CC(C)=O
inactive: [14] 91 % of control | [16] 94 % of control | [18] 92 % of control

Cc1ccc(O)c(N=O)c1.[Co]
inactive: endpoint: mean survival time, dose: 50.0 mg/kg/injection, schedule: Q01DX001 (ip), vehicle: saline 97 % of control | endpoint: mean survival time, dose: 100.0 mg/kg/injection, schedule: Q01DX001 (ip), vehicle: saline 109 % of control | endpoint: mean survival time, dose: 200.0 mg/kg/injection, schedule: Q01DX001 (ip), vehicle: saline 115 % of control

COC(=O)c1ccccc1NC(=O)CCl
inactive: [15] 99 % of control | [17] 91 % of control

COc1ccc(OC(=O)Nc2ccc(OC)cc2OC)cc1
inactive: [2] 97 % of control | [4] 104 % of control | [6] 96 % of control

COc1ccc(/C=N\NC(=O)c2ccncc2)cc1OC
inactive: endpoint: mean survival time, dose: 50.0 mg/kg/injection, schedule: Q04DX002 (ip), vehicle: Klucel (hydroxypropylcellulose) (HPC) 101 % of control | endpoint: mean survival time, dose: 100.0 mg/kg/injection, schedule: Q04DX002 (ip), vehicle: Klucel (hydroxypropylcellulose) (HPC) 106 % of control | endpoint: mean survival time, dose: 200.0 mg/kg/injection, schedule: Q04DX002 (ip), vehicle: Klucel (hydroxypropylcellulose) (HPC) 109 % of control | endpoint: mean survival time, dose: 400.0 mg/kg/injection, schedule: Q04DX002 (ip), vehicle: Klucel (hydroxypropylcellulose) (HPC) 103 % of control

O=C(N/N=C\c1ccc(O)cc1O)c1ccco1
inactive: endpoint: mean survival time, dose: 100.0 mg/kg/injection, schedule: Q01DX001 (ip), vehicle: other 90 % of control | endpoint: mean survival time, dose: 200.0 mg/kg/injection, schedule: Q01DX001 (ip), vehicle: other 93 % of control | endpoint: mean survival time, dose: 400.0 mg/kg/injection, schedule: Q01DX001 (ip), vehicle: other 96 % of control

COc1ccc(OC(=O)Nc2cc([N+](=O)[O-])ccc2OC)cc1
inactive: endpoint: mean survival time, dose: 25.0 mg/kg/injection, schedule: Q01DX009 (ip), vehicle: Klucel (hydroxypropylcellulose) (HPC) 89 % of control | [1] 96 % of control | [2] 88 % of control | [4] 88 % of control

CCC(C)(C(=O)OCCOCCCl)c1cccc2ccccc12 (stereo unspecified)
inactive: [12] 95 % of control | endpoint: mean survival time, dose: 200.0 mg/kg/injection, schedule: Q04DX002 (ip), vehicle: saline with Tween-80 104 % of control | [13] 101 % of control
